Results taken from patent publication EP0107350A1, “Sulfon amides” (Beecham Wuelfing GmbH & Co KG, priority 1982, dated 1984).

Test system: Guinea pigs
Assay: Electrostimulation test (antiarrhythmic effect; voltage needed to induce extrasystoles/arrhythmias by electrostimulation of the right ventricle)
Format: in vivo
Conditions: anaesthetized Guinea pigs (Urethane 1.2 g/kg i.p.), substances given intraduodenally 30 min before stimulation; 6 treated vs 6 control animals; * = statistically significant p<0.05; dose not given
Method: According to the method described by […]. and PAPP, G J., (Naunyn-Schmiedebergs Arch. exp. Path. Pharmak. 245, 70 (1963), arrhythmias are induced in Guinea pigs by electostimulation of the right ventricle of the heart. The animals are anaesthetized with Urethane (1.2 g/kg i.p.) and artificially respired before a needle electrode is inserted in the right ventricle of the heart. Substances are given intraduodenally 30 min before the stimulation. The voltage needed for induction of extrasystoles in 6 control animals (n=6) is compared with that required for induction of arrhythmias in 6 treated animals (n=6). The difference is statistically evaluated by the unpaired t-test (STUDENT). This method was used to evaluate the compounds of the present invention. In Tables 1 and 2, ^* means statistically significant p<0.05.

Q: With `Cc1cc(C)c(S(=O)(=O)NC(C)CCCN2CCCCC2C)c(C)c1` (stereo not shown) [(1)] as the molecule, how does the “% Increase in Test Voltage” value read?
A: Its value is 89.4* %.

Q: Which “% Increase in Test Voltage” value does the source give for `CC(CN1CCCCC1)NS(=O)(=O)c1cc(Cl)c(Cl)cc1Cl.Cl` (stereo not shown) [(2), 1-[2-(2,4,5-trichlorobenzenesulphonamido)-propyl] piperidinium chloride] here?
A: The value was 29.6* %.

Q: With `Cc1cc(C)c(S(=O)(=O)NC(C)CCCN2CC(C)CC2C)c(C)c1` (stereo not shown) [(3)] as the molecule, how does the “% Increase in Test Voltage” value read?
A: The value was 87.7* %.

Q: For `CC1CCCCN1CC(O)CNS(=O)(=O)c1cc(Cl)c(Cl)cc1Cl` (stereo not shown) [(4)], which “% Increase in Test Voltage” value is on record?
A: Its value is 60.6* %.

Q: How did the “% Increase in Test Voltage” value turn out when `Cc1cc(C)c(S(=O)(=O)NCC(O)CN2CCCC2)c(C)c1` (stereo not shown) [(5)] was run?
A: The value was 29.5* %.

Q: Which “% Increase in Test Voltage” value does the source give for `Cc1cc(C)c(S(=O)(=O)NCC(O)CN2CC(C)CC2C)c(C)c1` (stereo not shown) [(6)] here?
A: Its value is 12.1* %.

Q: `Cc1cc(C)c(S(=O)(=O)NCC(O)CN2CCCCC2C)c(C)c1` (stereo not shown) [(7)] was tested. Which “% Increase in Test Voltage” value did it give?
A: Its value is 13.4* %.
